Structures can show the parent of a compound that is named as a salt.

This note sets out measurements from paper PMC11358092, “Caspofungin enhances the potency of rifampin against Gram-negative bacteria” (Frontiers in Microbiology, 2024).

This assay deals with E. coli MG1655. The assay is described as follows: High-throughput screening of FDA-approved drug library for antibiotic adjuvants (growth inhibition, OD600). The assay is classed as cell-based, Escherichia coli. Conditions: library drug alone, LB medium, 96-well, 8 h static culture at 37°C, relative to PMBN (positive) and DMSO (negative) controls, %, table head prints no unit. How it is done: To screen for antibiotic adjuvants against GNB, […] library drugs or polymyxin B nonapeptide (PMBN, positive control) or dimethyl sulfoxide (DMSO, negative control). After 8 h of static culture at 37°C, the optical density at 600 nm (OD600) was measured using a microplate reader. Percentage inhibition was calculated as (ODN – ODX)/(ODN – ODP) × 100%, where ODX is the OD600 value for a test treated with drug X, and ODP and ODN are the OD600 values for the positive and negative control, respectively.
In the case of `NCC[C@H](O)C(=O)N[C@@H]1C[C@H](N)[C@@H](O[C@H]2O[C@H](CN)[C@@H](O)[C@H](O)[C@H]2O)[C@H](O)[C@H]1O[C@H]1O[C@H](CO)[C@@H](O)[C@H](N)[C@H]1O.O=S(=O)(O)O.O=S(=O)(O)O` [Amikacin disulfate], the “Growth inhibition, Compound” value was found to be 108%.
Under `Cc1oc(=O)oc1COC(=O)N1CC[C@@H](N2CC/C(=C\C3=C(C(=O)O)N4C(=O)[C@@H](NC(=O)/C(=N/O)c5nsc(N)n5)[C@H]4SC3)C2=O)C1` [Ceftobiprole medocaril] stands 106%; under `CO[C@H]1/C=C/O[C@@]2(C)Oc3c(C)c(O)c4c([O-])c(cc(O)c4c3C2=O)NC(=O)/C(C)=C\C=C\[C@H](C)[C@H](O)[C@@H](C)[C@@H](O)[C@@H](C)[C@H](OC(C)=O)[C@@H]1C.[Na+]` [Rifamycin sodium salt], 25%; under `CO[C@@]1(NC(=O)Cc2cccs2)C(=O)N2C(C(=O)O)=C(COC(N)=O)CS[C@@H]21` [Cefoxitin sodium], 78%.
For the compound `C[C@H]1COc2c(N3CCN(C)CC3)c(F)cc3c(=O)c(C(=O)O)cn1c23` [Levofloxacin Hemihydrate], the “Growth inhibition, Compound” value is recorded as 114%.
Under `C[C@@H](O)[C@H]1C(=O)N2C(C(=O)O)=C(S[C@@H]3CN[C@H](C(=O)N(C)C)C3)[C@H](C)[C@H]12` [Meropenem] stands 90%; under `O=c1[nH]c(=O)n([C@H]2C[C@H](O)[C@@H](CO)O2)cc1F` [Floxuridine], 87%.
Take `CCn1cc(C(=O)O)c(=O)c2ccc(C)nc21` [Nalidixic acid]: the “Growth inhibition, Compound” value turned out to be 74%.
Under `CN(C)[C@@H]1C(O)=C(C(N)=O)C(=O)[C@@]2(O)C(O)=C3C(=O)c4c(O)cccc4[C@@](C)(O)[C@H]3[C@H](O)[C@@H]12` [Oxytetracycline Dihydrate] stands 101%.
Under `Cn1nnc(-c2ccc(-c3ccc(N4C[C@H](CO)OC4=O)cc3F)cn2)n1` [Torezolid] stands 61%; under `CC(=O)Nc1ncc([N+](=O)[O-])s1` [Nithiamide], 87%.
On to `CC[C@H]1OC(=O)[C@H](C)[C@@H](O[C@H]2C[C@@](C)(OC)[C@@H](O)[C@H](C)O2)[C@H](C)[C@@H](O[C@@H]2O[C@H](C)C[C@H](N(C)C)[C@H]2O)[C@](C)(O)C[C@@H](C)CN[C@H](C)[C@@H](O)[C@]1(C)O` [Azathramycin], for which the “Growth inhibition, Compound” value is listed as 114%.
As for `Nc1ncn([C@@H]2O[C@H](CO)[C@@H](O)[C@H]2O)c(=O)n1` [5-Azacytidine], the “Growth inhibition, Compound” value was 43%.
On to `C/C(=C\C(=O)OCCCCCCCCC(=O)O)C[C@@H]1OC[C@H](C[C@@H]2O[C@H]2[C@@H](C)[C@H](C)O)[C@@H](O)[C@H]1O` [Mupirocin], for which the “Growth inhibition, Compound” value is listed as 83%.
On to `C[C@@H](O)[C@H]1C(=O)N2C(C(=O)[O-])=C(SC3Cn4cnc[n+]4C3)[C@H](C)[C@H]12` (stereo partly shown) [Biapenem], for which the “Growth inhibition, Compound” value is listed as 113%.
Take `CO/N=C(\C(=O)N[C@@H]1C(=O)N2C(C(=O)O)=C(C[N+]3(C)CCCC3)CS[C@H]12)c1csc(N)n1` [Cefepime Dihydrochloride Monohydrate]: the “Growth inhibition, Compound” value is 83%.
Under `CN(C)[C@@H]1C(O)=C(C(N)=O)C(=O)[C@@]2(O)C(O)=C3C(=O)c4c(O)cccc4[C@@](C)(O)[C@H]3[C@H](O)[C@@H]12` [Oxytetracycline] stands 66%; under `CO/N=C(\C(=O)N[C@@H]1C(=O)N2C(C(=O)O)=CCS[C@H]12)c1csc(N)n1` [Ceftizoxime], 101%; under `CC1(C)S[C@@H]2[C@H](NC(=O)[C@H](C(=O)O)c3ccsc3)C(=O)N2[C@H]1C(=O)O` [Ticarcillin sodium], 86%.
Take `C=C[C@]1(C)C[C@@H](OC(=O)CS[C@@H]2CC[C@@H](N)C[C@H]2O)C2(C)[C@H](C)CCC3(CCC(=O)[C@H]32)[C@@H](C)[C@@H]1O.CC(=O)O` (stereo partly shown) [Lefamulin acetate]: the “Growth inhibition, Compound” value is on record as 98%.
In the case of `C[C@H]1COc2c(N3CCN(C)CC3)c(F)cc3c(=O)c(C(=O)O)cn1c23` [Levofloxacin], the “Growth inhibition, Compound” value is recorded as 102%.
Under `O=C([O-])C1=C(CSc2nnnn2CS(=O)(=O)[O-])CS[C@@H]2[C@H](NC(=O)[C@H](O)c3ccccc3)C(=O)N12.[Na+].[Na+]` [Cefonicid sodium] stands 59%.
As to `CC1(C)S[C@@H]2[C@H](NC(=O)[C@H](N)c3ccccc3)C(=O)N2[C@H]1C(=O)OCOC(=O)[C@@H]1N2C(=O)C[C@H]2S(=O)(=O)C1(C)C` [Sultamicillin Tosylate], the “Growth inhibition, Compound” value was 93%.
Consider `CC(C)(C)C(=O)OCOC(=O)[C@@H]1N2C(=O)[C@@H](/N=C/N3CCCCCC3)[C@H]2SC1(C)C` [Pivmecillinam hydrochloride], for which the “Growth inhibition, Compound” value amounted to 72%.
Consider `Nc1nc(-n2cc(C(=O)O)c(=O)c3cc(F)c(N4CC(O)C4)c(Cl)c32)c(F)cc1F` [Delafloxacin], for which the “Growth inhibition, Compound” value came to 105%.
Under `CN[C@@H]1[C@@H](O)[C@@H](O[C@@H]2[C@@H](O)[C@H](O[C@H]3O[C@H]([C@@H](C)NC)CC[C@H]3N)[C@@H](N)C[C@H]2N)OC[C@]1(C)O.O=S(=O)(O)O` [Gentamycin sulfate] stands 110%.
Under `N[C@@H]1[C@H]2CN(c3nc4c(cc3F)c(=O)c(C(=O)O)cn4-c3ccc(F)cc3F)C[C@@H]12` [Trovafloxacin mesylate] stands 116%; under `NCC[C@H](O)C(=O)N[C@@H]1C[C@H](N)[C@@H](O[C@H]2O[C@H](CN)[C@@H](O)[C@H](O)[C@H]2O)[C@H](O)[C@H]1O[C@H]1O[C@H](CO)[C@@H](O)[C@H](N)[C@H]1O` [Amikacin], 105%; under `Oc1c(Cl)cc(Cl)c2cccnc12` [Capitrol], 118%.
Under `[H]/N=C(\N/C(=N/[H])NCCCCCCNC(=N)NC(=N)Nc1ccc(Cl)cc1)Nc1ccc(Cl)cc1` [Chlorhexidine Acetate] stands 103%.
Regarding `CCn1cc(C(=O)[O-])c(=O)c2ccc(C)nc21.[Na+]` [Nalidixic acid sodium salt], the “Growth inhibition, Compound” value is recorded as 63%.
With `CS(=O)(=O)O.C[C@H]1COc2c(C3(N)CC3)c(F)cc3c(=O)c(C(=O)O)cn1c23` [Pazufloxacin Mesylate], the “Growth inhibition, Compound” value was 109%.
Under `CC[C@H]1OC(=O)[C@H](C)[C@@H](O[C@H]2C[C@@](C)(OC)[C@@H](O)[C@H](C)O2)[C@H](C)[C@@H](O[C@@H]2O[C@H](C)C[C@H](N(C)C)[C@H]2O)[C@](C)(O)C[C@@H](C)CN(C)[C@H](C)[C@@H](O)[C@]1(C)O` [Azithromycin dihydrate] stands 111%; under `O.c1cnc2c(c1)ccc1cccnc12` [1, 10-Phenanthroline monohydrate], 62%.
In the case of `Cc1nnc(SCC2=C(C(=O)O)N3C(=O)[C@@H](NC(=O)Cn4cc(Cl)c(=O)c(Cl)c4)[C@H]3SC2)s1` [Cefazedone], the “Growth inhibition, Compound” value is 111%.
Under `Nc1n[n+]([O-])c2ccccc2[n+]1[O-]` [Tirapazamine] stands 114%.
Take `CCn1cc(C(=O)O)c(=O)c2cc(F)c(N3CCNCC3)nc21.CCn1cc(C(=O)O)c(=O)c2cc(F)c(N3CCNCC3)nc21.O.O.O` [Enoxacin Sesquihydrate]: the “Growth inhibition, Compound” value is reported as 110%.
